Measured values: patent US8586571B2, “Heterocyclic compound” (Takeda Pharmaceutical Company Limited, priority 2007, dated 2013)

Legend:
human RBP4 = human RBP4 (Homo sapiens (Human), UniProt P02753); assay: Binding assay by Retinol-RBP4-TTR ELISA (human-type ELISA); conditions: inhibition of binding of RBP4 with retinol and TTR; retinol 0.5 μM; read-out: human RBP4 binding inhibitory activity (IC50 nM)
Procedure: The action of the compound of the present invention to inhibit binding of RBP4 and retinol and TTR was evaluated using the Retinol-RBP4-TTR ELISA (human-type ELISA) system shown below.
Binding Assay by Retinol-RBP4-TTR ELISA
This ELISA system detects a complex of retinol, RBP4 and TTR by Streptoavidin-Biotin reaction.
His-tagged human RBP4 used was prepared in the above-mentioned 1C.
Biotinylate human TTR used was prepared in the above-mentioned 1E.
Streptavidin (20 μl) (10 μg/ml Streptavidin type II (Wako Pure Chemical Industries, Ltd.), 10 mM Tris-HCl (pH 7.5), 10 mM NaCl) was added to a 384 well black maxisorp plate (Nunc), and the plate was subjected to centrifugation (1000 rpm, 1 min) and coated overnight at 4° C. The plate was washed twice with PBST (PBS, 0.05% Tween 20, 100 μl/well) and blocked with 25% Block Ace (Snow Brand Milk Products Co., Ltd., PBS, 100 μl/well). The plate was subjected to centrifugation (1000 rpm, 1 min) and incubated at room temperature for 4 hr or overnight at 4° C. The plate was washed twice with PEST (PBS, 0.05% Tween 20, 100 μl/well), and biotinylated human TTR (stock solution concentration 1.3 mg/ml) diluted 1000-fold with PBST was added at 20 μl/well. The plate was subjected to centrifugation (1000 rpm, 1 min) and stood still at room temperature for 1.5 hr or overnight at 4° C. The plate was washed 3 times with PBST (100 μl/well), and His-tagged human RBP4 (stock solution concentration 0.96 mg/ml) diluted 4000-fold with a reaction buffer (50 mM Tris-HCl, 150 mM NaCl, 0.005% Tween 20, 1 mM DTT, 0.1% BSA) was added at 10 μl/well. The dilution series (8 doses from 10 mM, 200-fold concentration) of the compound was prepared with DMSO, and 1 μl of each was added to a reaction buffer (200 μl) containing retinol (0.5 μM) (Sigma-Aldrich Co.). A reaction buffer (200 μl) containing retinol and added with DMSO was used as a positive control, and reaction buffer (200 μl) free of retinol and added with DMSO was used as a negative control. Mixed solutions of retinol and the compound were added to the plate at 15 μl/well. The mixture was stirred in a platemixer subjected to centrifugation (1000 rpm, 1 min) and reacted at room temperature for 2 hr. A 35% Block Ace solution diluted with the reaction buffer was added at 10 μl/well, centrifuged (1000 rpm, 1 min) and reacted at room temperature for 30 min. The plate was washed 3 times with PBST (100 μl/well) and SuperSignal ELISA Femto Maximum Sensitivity Substrate reagent (PIERCE) was added at 30 μl/well, and the luminescence was measured by a platereader (Wallac).
The binding inhibitory rate of the compound was determined by 100×(test compound value-negative control value)/(positive control value-negative control value). The binding activity (IC50) was calculated from the binding inhibitory rate at each compound concentration using a graph drawing software, Prism (GraphPad Software Inc.).

Zucker fa/fa rat = assay: Anti-diabetes action using Zucker fa/fa rat (Takeda Pharmaceutical Company Limited); format: in vivo; conditions: oral 30 mg/kg for 2 weeks
Procedure: An anti-diabetes action and a blood triglyceride (hereinafter TG)-lowering action of the compound of the present invention were evaluated using Zucker fa/fa rats.
Male 7-week-old Zucker fa/fa rats (Takeda Pharmaceutical Company Limited) were bred in group on CE-2 solid food (CLEA Japan, Inc.) until 7-week-old, thereafter bred on high-fat diet D06110702 (LSG Corporation) for acclimation under conditions with free access to food. At 11-week-old, the rats were grouped based on the body weight, blood glucose level, glycated hemoglobin level, blood RBP4 level and blood insulin level value (6 per group). Thereafter, the test compound (Example 143) was orally administered at a dose of 30 mg/kg (solvent: 0.5% methylcellulose solution (5 mL/kg)) for 2 weeks. The next day of the final administration of the compound, blood samples were collected from the tail vein, and plasma was separated. Using the collected plasma, (1) RBP4 concentration and (2) glycated hemoglobin level were measured. (1) was quantified according to the protocol described in Experimental Example 2. (2) was measured using Tosoh Corporation automatic glycohemoglobin analyzer (HLC-723 GHbV A1c2.2 or HLC-723G7 GHbV A1c2.2).
A 0.5% methylcellulose solution (5 mL/kg) was orally administered to the control group. […] The results are shown in the is following in mean±standard deviation (n=6). In the following Table, glycated hemoglobin change is obtained by subtracting the value before administration from that after administration.

RBP4 = RBP4 (Mus musculus (Mouse), UniProt Q00724); assay: Blood RBP4 lowering action in C57BL/6J mouse (plasma RBP4 by ELISA); format: in vivo; conditions: mean±SD (n=5); for RBP4 (% of initial/Control) 4 hr later: 4 hr after single oral 50 mg/kg; for RBP4 (% of initial/Control) 7 hr later: 7 hr after single oral 50 mg/kg; for RBP4 (% of initial/Control) 24 hr later: 24 hr after single oral 50 mg/kg
Procedure: A blood RBP4 lowering action of the compound of the present invention was evaluated using C57BL/6J mouse.
Male 7- to 15-week-old C57BL/6J mice (Charles River Laboratories Japan Inc.) were individually bred for acclimation for 4-6 days under conditions with free access to CE-2 solid food (CLEA Japan, Inc.), and grouped based on the body weight (5 per group). The next day of grouping, blood samples were collected from the orbital venous plexus, and plasma was separated (0 hr value). Thereafter, the test compounds (Examples 12, 143, 164, 189, 197, 207 and 215) were orally administered at a dose of 50 mg/kg (solvent: 0.5% methylcellulose solution (10 mL/kg)). At 4, 7 and 24 hr after administration of the compounds, blood samples were collected from the orbital venous plexus, and plasma was separated. A 0.5% methylcellulose solution (10 mL/kg) was orally administered to the control group.
The RBP4 level of the collected plasma was measured by ELISA. RBP4 was quantified by the following steps using a rabbit anti-mouse RBP4 polyclonal antibody (Hokudo Co., Ltd). A 96 well ELISA plate was coated with 50 μg/mL of the antibody (100 μL) and stood at 4° C. overnight. After blocking with BlockAce (DAINIPPON PHARMACEUTICAL CO., LTD.), mouse RBP4 or a sample (100 μL) was added and the plate was stood at room temperature for 2 hr. After washing with PBS-0.5% Tween 20, HRP-labeled anti-RBP4 antibody (prepared by labeling RBP4 polyclonal antibody (Hokudo Co., Ltd) with HRP (DOJINDO LABORATORIES)) was added by 100 μL, and the plate was stood at room temperature for 1 hr. After washing, TMB (Dako Cytomations) was added, and the mixture was stood at room temperature for 20 min to allow color development, and the reaction was quenched with 2N sulfuric acid. Thereafter, the absorbance at A450 nm was measured on a platereader. The amount of change from the initial value of each animal was determined as a relative value from the control group (% of initial/Control) at each time point. The results are shown in the following in mean±standard deviation (n=5).

SMILES	IC50 (human RBP4) [nM]	RBP4 (% of initial/Control) 4 hr later (RBP4)	RBP4 (% of initial/Control) 7 hr later (RBP4)	RBP4 (% of initial/Control) 24 hr later (RBP4)	further results
CC(C)(C)c1cc(F)ccc1OC1CN(C(=O)c2ccccn2)C1 [Example 6, (3-(2-tert-butyl-4-fluorophenoxy)azetidin-1-yl)(pyridin-2-yl)methanone]	20				
CC(C)(C)c1ccccc1OC1CN(C(=O)CC(=O)O)C1 [Example 10, 3-(3-(2-tert-butylphenoxy)azetidin-1-yl)-3-oxopropanoic acid]	36				
CC(C)(C)c1ccccc1OC1CN(C(=O)C2(C(=O)O)CC2)C1 [Example 14, 1-(3-(2-tert-butylphenoxy)azetidine-1-carbonyl)cyclopropanecarboxylic acid]	24				
CC(C)(C)c1ccccc1SC1CN(C(=O)c2ccccn2)C1 [Example 17, (3-(2-tert-butylphenylthio)azetidin-1-yl)(pyridin-2-yl)methanone]	10				
CC(C)(C)c1ccccc1S(=O)(=O)C1CN(C(=O)c2ccccc2)C1 [Example 20, (3-(2-tert-butylphenylsulfonyl)azetidin-1-yl)(phenyl)methanone]	290				
CC(C)(C)c1ccccc1OC1CCN(C(=O)c2ccccn2)CC1 [Example 50, (4-(2-tert-butylphenoxy)piperidin-1-yl)(pyridin-2-yl)methanone]	5				
CC(C)(C)c1cc(F)ccc1OC1CN(C(=O)CCC(=O)O)C1 [Example 80, 4-[3-(2-tert-butyl-4-fluorophenoxy)azetidin-1-yl]-4-oxobutanoic acid]	20				
CCCCCS(=O)(=O)NC(=O)C(=O)N1CCC(COc2ccccc2C(C)(C)C)CC1 [Example 121, 2-{4-[(2-tert-butylphenoxy)methyl]piperidin-1-yl}-2-oxo-N-(pentylsulfonyl)acetamide]	790				
CC(C)(C)c1cc(F)ccc1OCC1CN(C(=O)CC(=O)O)C1 [Example 143, 3-{3-[(2-tert-butyl-4-fluorophenoxy)methyl]azetidin-1-yl}-3-oxopropanoic acid]	23	46.7 ± 6.6 % of initial/Control	36.2 ± 4.2 % of initial/Control	45.2 ± 9.1 % of initial/Control	blood RBP4 concentration (result in words) (Zucker fa/fa rat; versus control): significant decrease; glycated hemoglobin (result in words) (Zucker fa/fa rat; versus control): significant decrease; RBP4 (Zucker fa/fa rat; plasma, high-fat diet, mean±SD (n=6)): 7.3 ± 1.2 µg/mL; glycated hemoglobin change(%) (Zucker fa/fa rat; value after minus before administration, mean±SD (n=6)): 0.6 ± 0.4%
CC(C)(C)c1cc(Cl)ccc1OC1CN(C(=O)c2ccccn2)C1 [Example 164, 2-{[3-(2-tert-butyl-4-chlorophenoxy)azetidin-1-yl]carbonyl}pyridine]	15	55.6 ± 6.3 % of initial/Control	46.4 ± 7.2 % of initial/Control	74.5 ± 8.9 % of initial/Control	
CC(C)(C)c1cc(Cl)ccc1OC1CN(C(=O)CCC(=O)O)C1 [Example 189, 4-[3-(2-tert-butyl-4-chlorophenoxy)azetidin-1-yl]-4-oxobutanoic acid]	71	51.5 ± 1.7 % of initial/Control	42.1 ± 1.3 % of initial/Control	69.7 ± 9.6 % of initial/Control	
CC(C)(C)c1ccccc1OCC1CCN(C(=O)CC(=O)O)C1 (stereo not drawn) [Example 197, 3-{3-[(2-tert-butylphenoxy)methyl]pyrrolidin-1-yl}-3-oxopropanoic acid]	40	39.2 ± 1.4 % of initial/Control	29.2 ± 1.0 % of initial/Control	40.4 ± 3.0 % of initial/Control	
CC(C)(C)c1cc(Cl)ccc1OCC1CN(C(=O)C(=O)O)C1 [Example 207, {3-[(2-tert-butyl-4-chlorophenoxy)methyl]azetidin-1-yl}(oxo)acetic acid]	12	55.6 ± 1.0 % of initial/Control	49.0 ± 1.3 % of initial/Control	69.5 ± 6.6 % of initial/Control	
CC(C)(C)c1cc(F)ccc1OCC1CCN(C(=O)CC(=O)O)C1 (stereo not drawn) [Example 215, 3-{3-[(2-tert-butyl-4-fluorophenoxy)methyl]pyrrolidin-1-yl}-3-oxopropanoic acid]	34	64.3 ± 1.2 % of initial/Control	60.6 ± 0.6 % of initial/Control	64.7 ± 4.3 % of initial/Control	
